From patent publication US12679812B2, “18F-labeled triazole containing PSMA inhibitors” (Cornell University, priority 2016, dated 2026)
Where “and” joins values, the source holds several entries; their conditions need not be identical. Identical values can stand only once. Like-named read-outs stand apart in the source and are kept apart here. Marks after values point to notes of the source that are not given here. Each block holds one compound with its values, some of them ahead of it.

Assays:
[1] = target: T1, PSMA on LNCaP cells (Homo sapiens, UniProt Q04609); assay: Competitive binding assay against 99mTc-MIP-1427 for binding to PSMA on LNCaP cells; conditions: non-radioactive fluorine-containing ligands, 1 nM 99mTc-MIP-1427, 1 hour
T1 construct: host or cells: LNCaP
Protocol: Cell Culture. The human prostate cancer cell line, LNCaP, was obtained from the American Type Culture Collection. Cell culture supplies were from Invitrogen unless otherwise noted. LNCaP cells were maintained in RPMI-1640 medium supplemented with 10% fetal bovine serum (Hyclone), 4 mM L-glutamine, 1 mM sodium pyruvate, 10 mM N-2-hydroxyethylpiperazine-N-2-ethanesulfonic acid (HEPES), 2.5 mg/mL D-glucose, and 50 μg/mL gentamicin in a humidified incubator at 37° C./5% C02. Cells were removed from flasks for passage or for transfer to 12-well assay plates by incubating them with 0.25% trypsin/ethylenediaminetetraacetic acid (EDTA).
In vitro determination of IC50. IC50 values of the non-radioactive fluorine-containing ligands were determined by screening in a multi-concentration competitive binding assay against ^99mTc-((7S,12S,16S)-1-(1-(carboxymethyl)-1H-imidazol-2-yl)-2-((1-(carboxymethyl)-1H-imidazol-2-yl)methyl)-9,14-dioxo-2,8,13,15-tetraazaoctadecane-7,12,16,18-tetracarboxylic acid technetium tricarbonyl complex) (^99mTc-MIP-1427) for binding to PSMA on LNCaP cells, according to methods previously described. See Hillier S M, Maresca K P, Lu G, Merkin R D, Marquis J C, Zimmerman C N, Eckelman W C, Joyal J L, Babich J W. 99mTc-Labeled Small-Molecule Inhibitors of Prostate-Specific Membrane Antigen for Molecular Imaging of Prostate Cancer. J. Nucl. Med. 2013, 54, 1369-1376, incorporated herein by reference. The LNCaP cells were plated 48 hours prior to the experiment to achieve a density of approximately 5×10^5 cells/well (in triplicate) in RPMI-1640 medium supplemented with 0.25% bovine serum albumin prior to performing the assay. LNCaP cells were incubated for 1 hour with 1 nM ^99mTc-MIP-1427 in serum free RPMI-1640 medium in the presence of 1-10,000 nM test compounds. Radioactive incubation media was then removed by pipette and the cells were washed twice using 1 mL ice-cold HEPES buffer. Cells were harvested from the plates and transferred to tubes for radioactive counting using a Packard Cobra II Gamma Counter. IC50 values were determined by non-linear regression using GraphPad Prism software.

[2] = tested on: LNCaP tumor; conditions: literature value, cited from earlier work
[3] = tested on: LNCaP xenograft tumor; assay: microPET/CT imaging of LNCaP xenograft tumor-bearing mice; format: in vivo; conditions: for Route of clearance / excretion: from microPET/CT images; for Max. LNCaP Tumor Uptake: image derived calculation of tumor uptake (microPET/CT), at time of maximum uptake; for Time p.i. of max. LNCaP tumor uptake: microPET/CT imaging at 1, 2, 4, 6 h
Protocol: Inoculation of mice with xenografts. All animal studies were approved by the Institutional Animal Care and Use Committee of Weill Cornell Medicine and were undertaken in accordance with the guidelines set forth by the USPHS Policy on Humane Care and Use of Laboratory Animals. Animals were housed under standard conditions in approved facilities with 12 h light/dark cycles. Food and water was provided ad libitum throughout the course of the studies. Male inbred athymic nu/nu mice were purchased from The Jackson Laboratory. For inoculation in mice, LNCaP cells were suspended at 4×10^7 cells/mL in a 1:1 mixture of PBS:Matrigel (BD Biosciences). Each mouse was injected in the left flank with 0.25 mL of the cell suspension. The mice were imaged when the tumors reached approximately 200-400 mm^3, while biodistributions were conducted when tumors were in the range 100-400 mm^3.
Imaging. […] Specific activity was greater than […]. The mice were imaged by pPET/CT (Inveon™; Siemens Medical Solutions, Inc.) at 1 h, 2 h, 4 h, and 6 h post-injection ([^18F]fluorinated compounds) or 1 h and 3 h post-injection ([^68Ga]Ga-PSMA-HBED-CC). Total acquisition time was thirty minutes, and a CT scan was obtained either immediately before or immediately after the acquisition for both anatomical co-registration and attenuation correction. The data were reconstructed using the commercial Inveon™ software supplied by the vendor. Tumor uptake was estimated by drawing a region of interest (ROI).

[4] = tested on: LNCaP tumor; conditions: reported study, cited from earlier work; for Tumor uptake (Max. LNCaP Tumor Uptake): 3 h post injection
[5] = target: T2, PSMA (Homo sapiens, UniProt Q04609); conditions: for PSMA, competitive binding assay using LNCaP cells, literature value, cited from earlier work
T2 construct: host or cells: LNCaP

[6] = listed as [^68Ga]Ga-PSMA-HBED-CC

T1 sequence (Q04609 whole entry): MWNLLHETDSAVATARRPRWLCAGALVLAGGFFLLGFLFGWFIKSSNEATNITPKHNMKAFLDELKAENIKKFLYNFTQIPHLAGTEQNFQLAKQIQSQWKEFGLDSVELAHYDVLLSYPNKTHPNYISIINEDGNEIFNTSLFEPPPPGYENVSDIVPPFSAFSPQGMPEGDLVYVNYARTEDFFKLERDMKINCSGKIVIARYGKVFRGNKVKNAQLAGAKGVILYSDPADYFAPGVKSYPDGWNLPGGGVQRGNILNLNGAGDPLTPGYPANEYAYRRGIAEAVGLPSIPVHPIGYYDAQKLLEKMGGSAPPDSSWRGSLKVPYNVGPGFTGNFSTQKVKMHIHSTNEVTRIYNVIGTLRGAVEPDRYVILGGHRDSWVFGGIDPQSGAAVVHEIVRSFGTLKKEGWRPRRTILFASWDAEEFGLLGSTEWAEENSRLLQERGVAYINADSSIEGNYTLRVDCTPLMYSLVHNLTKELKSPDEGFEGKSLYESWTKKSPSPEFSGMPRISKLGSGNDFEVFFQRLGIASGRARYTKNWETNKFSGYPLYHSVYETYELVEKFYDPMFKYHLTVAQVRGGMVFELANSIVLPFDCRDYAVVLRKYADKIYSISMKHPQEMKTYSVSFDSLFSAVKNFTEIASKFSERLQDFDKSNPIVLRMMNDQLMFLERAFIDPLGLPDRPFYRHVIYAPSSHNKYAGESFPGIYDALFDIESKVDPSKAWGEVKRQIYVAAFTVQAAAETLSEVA
T2 sequence (Q04609 whole entry): as above

IC50 [1]: 0.3 nM
SMILES: O=C(O)CC[C@H](NC(=O)N[C@@H](CCCCNC(=O)Nc1ccc(I)cc1)C(=O)O)C(=O)O [MIP-1095]
Max. LNCaP Tumor Uptake ([2]; 4 h p.i.): 34.3 ± 12.7^a % ID/g | Time p.i. of max. LNCaP tumor uptake [2]: 4 h

Max. LNCaP Tumor Uptake [3]: 10.06 ± 1.33^c % ID/g | Time p.i. of max. LNCaP tumor uptake [3]: 2 h | IC50 [1]: 10.2 nM
SMILES: O=C(O)CC[C@H](NC(=O)N[C@@H](CCCCNC(=O)Nc1ccccc1-c1cn(CCF)nn1)C(=O)O)C(=O)O [RPS-042, (((S)-1-Carboxy-5-(3-(2-(1-(2-fluoroethyl)-1H-1,2,3-triazol-4-yl)phenyl)ureido)pentyl)carbamoyl)-L-glutamic acid]
Route of clearance / excretion [3]: clearance via the hepatobiliary pathway in addition to renal clearance

Time p.i. of max. LNCaP tumor uptake [3]: 2 h | IC50 [1]: 14 nM
SMILES: O=C(O)CC[C@H](NC(=O)N[C@@H](CCCCNC(=O)Nc1ccccc1OCc1cn(CCF)nn1)C(=O)O)C(=O)O [RPS-039, (((S)-1-Carboxy-5-(3-(2-((1-(2-fluoroethyl)-1H-1,2,3-triazol-4-yl)methoxy)phenyl)ureido)pentyl)carbamoyl)-L-glutamic acid]
Route of clearance / excretion [3]: clearance via the hepatobiliary pathway in addition to renal clearance | Max. LNCaP Tumor Uptake [3]: 5.87±0.27 % ID/g and 5.89 ± 0.27^c % ID/g

SMILES: O=C([O-])CN(CCN(CC(=O)[O-])Cc1cc(CCC(=O)NCCCCCC(=O)NCCCC[C@H](NC(=O)N[C@@H](CCC(=O)O)C(=O)O)C(=O)O)ccc1[O-])Cc1cc(CCC(=O)O)ccc1[O-].[68Ga+3].[OH3+] [^68Ga-PSMA-HBED-CC]
Uptake in the liver or intestine ([3]; microPET/CT, 1 h post injection): No uptake | Activity in the kidney ([4]; 1 h): 314.44±90.61 % ID/g | Activity in the spleen ([4]; 1 h): 31.73±14.09 % ID/g | Tumor uptake ([4]; 1 h post injection): 5.81±1.67 % ID/g | Activity in the kidney ([4]; 3 h): 207.97±58.38 % ID/g | Activity in the spleen ([4]; 3 h): 13.85±3.53 % ID/g | Tumor uptake (Max. LNCaP Tumor Uptake) [4]: 6.27 ± 1.44 % ID/g | Tumor uptake (Max. LNCaP Tumor Uptake) [4, 6]: 6.27±1.44 % ID/g | Time p.i. of max. LNCaP tumor uptake ([4]; 1 h and 3 h): 3 h | IC50 [5]: 24.3 ± 2 nM | IC50 [5, 6]: ~24 nM
